Laboratory results: PubChem BioAssay (NCI)
Values joined by “and” are separate entries in the source; they are usually repeats but may differ in a detail not shown here. Equal values may be shown once.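 Compound exposure: 48 hours, 5 concentrations, 96-well plates. GI50 marks 50% less growth. TGI marks complete inhibition of growth.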

Columns and labels:
Assay in all cases: inhibition of tumour cell growth, NCI panel, 48 h
SNB-19 CNS = test system: SNB-19 CNS
HOP-62 NSCLC = test system: HOP-62 NSCLC
SR leukemia = test system: SR leukemia
786-0 renal = test system: 786-0 renal
MOLT-4 leukemia = test system: MOLT-4 leukemia
SF-539 CNS = test system: SF-539 CNS
HOP-92 NSCLC = test system: HOP-92 NSCLC
CAKI-1 renal = test system: CAKI-1 renal
NCI-H460 lung = test system: NCI-H460 lung
OVCAR-8 ovarian = test system: OVCAR-8 ovarian
RXF 393 renal = test system: RXF 393 renal
SK-OV-3 ovarian = test system: SK-OV-3 ovarian
HCC-2998 colon = test system: HCC-2998 colon
SK-MEL-5 melanoma = test system: SK-MEL-5 melanoma
DU-145 prostate = test system: DU-145 prostate
MDA-MB-231 breast = test system: MDA-MB-231 breast
SK-MEL-2 melanoma = test system: SK-MEL-2 melanoma
MDA-N = test system: MDA-N

| Compound | TGI (SNB-19 CNS) [µM] | TGI (HOP-62 NSCLC) [µM] | TGI (SR leukemia) [µM] | TGI (786-0 renal) [µM] | TGI (MOLT-4 leukemia) [µM] | TGI (SF-539 CNS) | TGI (HOP-92 NSCLC) [µM] | TGI (CAKI-1 renal) | TGI (NCI-H460 lung) [µM] | TGI (OVCAR-8 ovarian) | TGI (RXF 393 renal) [µM] | TGI (SK-OV-3 ovarian) [µM] | TGI (HCC-2998 colon) [µM] | TGI (SK-MEL-5 melanoma) [µM] | TGI (DU-145 prostate) [µM] | TGI (MDA-MB-231 breast) [µM] | TGI (SK-MEL-2 melanoma) [µM] | TGI (MDA-N) [µM] | GI50 (SK-MEL-2 melanoma) [µM] | GI50 (SR leukemia) [µM] |
| --- | --- | --- | --- | --- | --- | --- | --- | --- | --- | --- | --- | --- | --- | --- | --- | --- | --- | --- | --- | --- |
| Cc1ccc(NC(Nc2ccc(C)cc2C)=C(C(Cl)=C(Cl)Cl)[N+](=O)[O-])c(C)c1 | 30 | 34.2 | 11.3 | 30.1 | 31.2 | 43 µM | 31.7 | 37.4 µM | 29.7 | 33.9 µM | 32.6 | 39.8 | 32.4 | 14.4 | 27.9 | 33 | – | – | – | – |
| COc1ccc(N=NC(=O)NC(Cc2ccccc2)C(=O)O)cc1 (stereo unspecified) | > 100 | > 100 | > 100 | > 100 | > 100 | > 100 µM | > 100 | > 100 µM | > 100 | > 100 µM | > 100 | – | > 100 | > 100 | > 100 | – | > 100 | > 100 | – | – |
| COc1cc(NS(C)(=O)=O)ccc1Nc1cc[nH]c2ccc3nccc3c12 | 29.9 | 30.6 | – | 27.7 | – | – | 24.8 | 32.5 µM | 34.5 | 28.8 µM | – | – | – | 29.8 | 27.7 | 25 | 30.9 | 30.8 | – | – |
| CC1(C)O[C@@H]([C@H](O)CO)[C@H](O)[C@@H](C2SCCCS2)O1 | > 100 | > 100 | > 100 | > 100 | – | > 100 µM | > 100 | > 100 µM | > 100 | > 100 µM | > 100 | > 100 | > 100 | > 100 | > 100 | > 100 | > 100 | – | – | – |
| N#Cc1cccc2c1Nc1ccccc1S2 | > 100 | > 100 | > 100 | > 100 | > 100 | > 100 µM | 92.3 | > 100 µM | > 100 | > 100 µM | > 100 | > 100 | > 100 | > 100 | – | – | > 100 | – | – | – |
| CCOC(=O)c1nc2ccc(C(F)(F)F)cc2nc1NCc1ccc(OC)cc1 | > 100 | > 100 | > 100 | > 100 | > 100 | > 100 µM | > 100 | > 100 µM | > 100 | > 100 µM | > 100 | > 100 | – | > 100 | – | > 100 | > 100 | > 100 | – | – |
| O=[N+]([O-])c1cccc2nc3ccccc3c(NCCCn3ccnc3[N+](=O)[O-])c12 | 0.0153 | 0.143 | 0.131 | 0.0137 | – | 0.0218 µM and 0.055 µM | – | 0.0816 µM and 0.188 µM | 0.0137 | 0.0126 µM and 0.0167 µM | 0.000768 | 0.111 | 0.000515 | – | – | 0.0119 | – | 0.000244 | 0.022 | < 0.0001 |
